Laboratory results as given in patent US20070293582A1, “Epinephrine dosing regimens comprising buccal, lingual or sublingual and injectable dosage forms” (priority 2006, published 2007).
Like-named read-outs stand apart in the source and are kept apart here.

Tested on: patient experiencing an allergic emergency (symptoms of anaphylaxis)
Settings: approximately 5 minutes apart
Method: (§1) A patient experiencing an allergic emergency initiates treatment at the onset of shortness of breath by self administering 40 mg of epinephrine free base in a buccal dosage form.
as §1
A patient experiencing an allergic emergency initiates treatment at the onset of shortness of breath by self administering 40 mg of epinephrine free base in a lingual dosage form.

Measured: patient's symptoms of anaphylaxis

CNC[C@H](O)c1ccc(O)c(O)c1 [epinephrine]
relieved: Example 1: 40 mg buccal, second 40 mg buccal, then first auto-injected 0.3 mg dose, outcome within about five minutes after the first injectable dose | Example 2: 40 mg buccal, 60 mg buccal, then two auto-injected 0.3 mg doses, outcome within about five minutes after the second injectable dose | Example 3: 40 mg lingual, 60 mg lingual, then two auto-injected 0.3 mg doses, outcome within about five minutes after the second injectable dose
